For 15 compounds, IC50 and EC50 results are on record in patent US10098878B2, “HIF-2α inhibitors for treating iron overload disorders” (The Board of Regents of the University of Texas System, priority 2014, dated 2018).

SMILES strings stand for the structures. Read-outs that look alike come from different tables or passages of the source. Some results are limits rather than exact numbers.

In experiment [1] the target is T1, HIF-2α HIS TAG-PASB Domain (Homo sapiens, UniProt Q99814).
T1 construct: 100 nM HIF-2α HIS TAG-PASB Domain
The experiment in a line: HIF-2α Scintillation Proximity Assay (SPA). It is filed as binding. The conditions noted are these: 100 nM HIF-2α HIS TAG-PASB Domain. In short, it runs like this:
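IC50 values rest on percent inhibition, where the sample signal is scaled between high and low controls. Wells contain about 100 μL: compound dispensed as 2 μL of DMSO solution, 88 μL protein-probe mix and 10 μL of beads.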
Background: In a scintillation proximity assay essentially only radioactivity close to the scintillant gives light.

The test system of a further experiment is 786-0 cells. In words: VEGF ELISA Assay. The conditions noted are these: Homo sapiens, VEGFA concentration in cell culture medium, read-out: VEGF ELISA EC50. It is filed as cell-based. On the procedure:
Each concentration had duplicated wells. About 20 hours later, medium was removed by suction and each well was supplied with 180 μL of growth medium. About 20 μl freshly-made 10× compound stocks were added to each well. […] The EC50 was calculated by GraphPad Prism using the dose-response-inhibition (four parameter) equation. The cell seeded plate was then subjected to CellTiter-Glo luminescence cell viability assay (Promega) by adding 50 μL of Celltiter Glo reagent into each well and shaking the plate for 8 minutes at 550 rpm (Thermomixer R, Eppendorf) then read luminescence signal in plate reader (3 second delay, 0.5 second/well integration time, Synergy 2 multi Detection Microplate reader) immediately.
For orientation: In an ELISA, binding on a coated surface is turned into a signal by an enzyme label.

The next experiment relates to 786-O-Hif-Luc cells. In words: Luciferase Assay. In kind it is cell-based. The following applies: 786-O-Hif-Luc cells, about 24 hours, read-out: Luciferase EC50. The protocol:
A pool of infected cells were then selected against 2 μg/mL of puromycin (P8833, Sigma) for 10 days followed by limited dilution to select single clones.
Each concentration was tested in triplicate. After about 24 hours, luciferase activity was determined using ONE-Glo Luciferase Assay Reagent (E6110, Promega) following the manufacturer's recommended procedure. EC50 were calculated by using Dotmatics software.

[2] abbreviates: 150 nM Compound 211 probe, read-out: SPA IC50.
[3] abbreviates: SPA IC50, 150 nM Compound 211 probe.

T1 sequence (Q99814 240-350 limits assumed): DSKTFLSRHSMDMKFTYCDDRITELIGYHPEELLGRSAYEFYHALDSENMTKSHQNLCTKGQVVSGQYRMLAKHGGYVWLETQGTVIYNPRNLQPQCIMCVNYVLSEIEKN

The IC50 is the point on the concentration scale where inhibition reaches its midpoint. One may read the EC50 as the midpoint of the concentration-response curve. With `NS(=O)(=O)c1ccc(Oc2cncc(F)c2)c2c1[C@H](O)C(F)(F)[C@@H]2F` [Compound 105, (1R,3S)-1,2,2-trifluoro-7-[(5-fluoro-3-pyridyl)oxy]-3-hydroxy-indane-4-sulfonamide], in experiment [1] (setting [2]), the IC50 was found to be 18 nM. Further, the EC50 with 786-0 cells (786-0, 786-0 cells) turned out to be 160 nM; with 786-O-Hif-Luc cells (24 h) it was 114 nM.
For `CS(=O)(=O)c1ccc(Oc2cncc(C#N)c2)c2c1[C@H](O)C(F)(F)[C@@H]2F` [Compound 106, 5-(((1S,3R)-2,2,3-trifluoro-1-hydroxy-7-(methylsulfonyl)-2,3-dihydro-1H-inden-4-yl)oxy)nicotinonitrile] the same measures were 47 nM, 95 nM and 88 nM.
The corresponding values for `N#Cc1cncc(Oc2ccc(S(=O)(=O)CF)c3c2[C@@H](F)C(F)(F)[C@H]3O)c1` [Compound 108, 5-(((1S,3R)-2,2,3-trifluoro-7-((fluoromethyl)sulfonyl)-1-hydroxy-2,3-dihydro-1H-inden-4-yl)oxy)nicotinonitrile] are 6.7 nM, 123 nM and 42 nM.
`N#Cc1cc(F)cc(Oc2ccc3c(c2Br)[C@@H](O)C(F)(F)S3(=O)=O)c1` [Compound 111, (R)-3-((4-bromo-2,2-difluoro-3-hydroxy-1,1-dioxido-2,3-dihydrobenzo[b]thiophen-5-yl)oxy)-5-fluorobenzonitrile]: the IC50 in experiment [1] (setting [2]) worked out at 7.2 nM. Also, the EC50 with 786-0 cells (786-0 cells) stood at 64 nM; with 786-O-Hif-Luc cells, 23 nM.
For `N#Cc1c(Oc2cc(F)cc(Cl)c2)ccc2c1C(O)CS2(=O)=O` (stereo not drawn) [Compound 117, 5-(3-chloro-5-fluorophenoxy)-3-hydroxy-2,3-dihydrobenzo[b]thiophene-4-carbonitrile 1,1-dioxide] the same measures were 61 nM, 333 nM and 451 nM.
`O=S1(=O)c2ccc(Oc3cc(F)cc(Cl)c3)c(C(F)(F)F)c2C(O)C1(F)F` (stereo not drawn) [Compound 124, 5-(3-Chloro-5-fluorophenoxy)-2,2-difluoro-3-hydroxy-4-(trifluoromethyl)-2,3-dihydrobenzo[b]thiophene 1,1-dioxide] yielded an IC50 in experiment [1] (setting [3]) of less than 5 nM. For the same compound, the values for the EC50 in the experiment with 786-0 cells (786-0 cells) and with 786-O-Hif-Luc cells were 89 nM and 75 nM, respectively.
For `O=S1(=O)c2ccc(Oc3cc(F)cc(Cl)c3)c(C(F)F)c2C(O)C1(F)F` (stereo not drawn) [Compound 128, 5-(3-Chloro-5-fluorophenoxy)-4-(difluoromethyl)-2,2-difluoro-3-hydroxy-2,3-dihydrobenzo[b]thiophene 1,1-dioxide] the same measures were less than 5 nM, 29 nM and 17 nM.
Turning to `NC1c2c(ccc(Oc3cc(F)cc(F)c3)c2C(F)F)S(=O)(=O)C1(F)F` (stereo not drawn) [Compound 129, 3-Amino-4-(difluoromethyl)-5-(3,5-difluorophenoxy)-2,2-difluoro-2,3-dihydrobenzo[b]thiophene 1,1-dioxide], in experiment [1] (setting [2]), the IC50 is less than 5 nM. Besides, the EC50 was determined as 87 nM in the experiment with 786-0 cells (786-0, 786-0 cells) and 68 nM with 786-O-Hif-Luc cells (24 h).
`N#Cc1cc(F)cc(Oc2ccc3c(c2C(F)F)C(N)C(F)(F)S3(=O)=O)c1` (stereo not drawn) [Compound 136, 3-((3-Amino-4-(difluoromethyl)-2,2-difluoro-1,1-dioxido-2,3-dihydrobenzo[b]thiophen-5-yl)oxy)-5-fluorobenzonitrile]: the IC50 in experiment [1] (setting [2]) is less than 5 nM. For the same compound, the EC50 in the experiment on 786-0 cells (786-0 cells) is 200 nM; with 786-O-Hif-Luc cells, 110 nM.
The corresponding values for `N#Cc1cc(F)cc(Oc2ccc3c(c2C(F)F)[C@@H](N)C(F)(F)S3(=O)=O)c1` [Compound 151, (R)-3-((3-Amino-4-(difluoromethyl)-2,2-difluoro-1,1-dioxido-2,3-dihydrobenzo[b]thiophen-5-yl)oxy)-5-fluorobenzonitrile] are 69 nM, 680 nM and 139 nM.
`O=S1(=O)c2ccc(Oc3cc(F)cc(Cl)c3)c(Br)c2[C@@H](O)C1(F)F` [Compound 167, (3R)-4-Bromo-5-(3-chloro-5-fluoro-phenoxy)-2,2-difluoro-1,1-dioxo-3H-benzothiophen-3-ol]: the IC50 in experiment [1] (setting [3]) was less than 5 nM. Besides, the results for the 50% effective concentration (EC50) in the experiment with 786-0 cells (786-0 cells) and in the experiment on 786-O-Hif-Luc cells were 45 nM and 37 nM, respectively.
Consider `O=S1(=O)c2ccc(Oc3cncc(Cl)c3)c(Br)c2[C@@H](O)C1(F)F` [Compound 185, (R)-4-bromo-5-((5-chloropyridin-3-yl)oxy)-2,2-difluoro-3-hydroxy-2,3-dihydrobenzo[b]thiophene 1,1-dioxide], for which, in experiment [1] (setting [2]), the IC50 came out at 124 nM. For the same compound, the EC50 in the experiment on 786-0 cells (786-0, 786-0 cells) came out at 178 nM; with 786-O-Hif-Luc cells (24 h), 98 nM.
On to `N#Cc1cncc(Oc2ccc3c(c2Br)[C@@H](O)C(F)(F)S3(=O)=O)c1` [Compound 188, (R)-5-((4-Bromo-2,2-difluoro-3-hydroxy-1,1-dioxido-2,3-dihydrobenzo[b]thiophen-5-yl)oxy)nicotinonitrile], for which the IC50 in experiment [1] (setting [2]) amounted to 116 nM. Moreover, the EC50 with 786-0 cells (786-0, 786-0 cells) amounted to 327 nM; with 786-O-Hif-Luc cells (24 h), 96 nM.
The corresponding values for `N#Cc1cc(F)cc(Oc2ccc3c(c2Cl)[C@@H](O)C(F)(F)S3(=O)=O)c1` [Compound 195, (R)-3-((4-chloro-2,2-difluoro-3-hydroxy-1,1-dioxido-2,3-dihydrobenzo[b]thiophen-5-yl)oxy)-5-fluorobenzonitrile] are 11 nM, 77 nM and 47 nM.
Regarding `CC1(O)c2c(ccc(Oc3cc(F)cc(F)c3)c2C#N)S(=O)(=O)C1(F)F` (stereo not drawn) [Compound 210, 5-(3,5-Difluorophenoxy)-2,2-difluoro-3-hydroxy-3-methyl-2,3-dihydrobenzo[b]thiophene-4-carbonitrile 1,1-dioxide], the IC50 in experiment [1] (setting [2]) amounted to 41 nM. The 50% effective concentration (EC50) was found to be 18 nM in the experiment with 786-0 cells (786-0, 786-0 cells) and 22 nM with 786-O-Hif-Luc cells (24 h).
